This note sets out measurements from ChEMBL document CHEMBL1201862, “PubChem BioAssay data set” (2004).

Experiment in all cases: NCI-60 cell line screen, 48 h
In assay [1] the test system is ACHN.
Assay [2] concerns EKVX.
Assay [3] relates to HOP-62.
In assay [4] the test system is HOP-92.
In assay [5] the test system is LXFL 529.
The test system of assay [6] is NCI-H23.
Assay [7] deals with NCI-H522.
Assay [8] concerns OVCAR-3.
Assay [9] deals with OVCAR-4.
Assay [10] has as its system SK-MEL-28.
The test system of assay [11] is SK-MEL-2.
Assay [12] deals with SN12C.
In assay [13] the test system is SNB-75.
Assay [14] concerns SR.
Assay [15] has as its system SW-620.
Assay [16] deals with U-251.
In assay [17] the test system is UACC-257.

SMILES strings stand for the structures.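 1) Cells in 96-well plates. 2) Compound, 48 h, 5 concentrations. 3) Linear interpolation between surrounding doses. 4) Unreached endpoint = highest concentration. The concentration for 50% growth inhibition is given as GI50.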 The source made the active and inactive calls. Rule as the data show it: active = GI50 up to about 1.1 µM and inactive = higher. Some results are limits rather than exact numbers.

Regarding `O=c1[nH]ccc2c1ccn2C1CC(O)C(CO)O1` (centres undefined), the GI50 in assay [1], in assay [2], in [3], in assay [4], in [5] and in [6] was > 100 µM (inactive) in each case. The GI50 in assay [7], in assay [8], in [9], in assay [10], in assay [11] and in assay [12] was > 100 µM (inactive) in each case. The GI50 in assay [13] was 46.5 µM (inactive); in assay [14], > 100 µM (inactive); in [15], > 100 µM (inactive); in assay [16], > 100 µM (inactive); in assay [17], > 100 µM (inactive).

Take `c1ccc2[nH]c(CNc3ccc(C4C[Se]N=N4)cc3)nc2c1` (centres undefined): the GI50 in [1] was > 100 µM (inactive); in assay [3], > 100 µM (inactive); in [4], > 100 µM (inactive); in assay [5], 18.7 µM (inactive); in [6] it was 30.3 µM (inactive); in assay [7], 29 µM (inactive). Also, the GI50 is 21.7 µM (inactive) in assay [8]; 27.5 µM (inactive) in assay [9]; 78.9 µM (inactive) in assay [10]; 33 µM (inactive) in assay [11]; 86.9 µM (inactive) in assay [12]; 43.2 µM (inactive) in assay [13]. For the same compound, the GI50 was 9.86 µM (inactive) in assay [14], 95.7 µM (inactive) in [15] and 55.8 µM (inactive) in assay [16].

As to `O=C(O)CC[C@H](NC(=O)c1ccc(-n2nc3ccc(=O)cc-3[nH]c2=O)cc1)C(=O)O`, the GI50 in assay [1], in [2], in assay [3], in assay [4], in assay [5] and in [6] was > 100 µM (inactive) in each case. Moreover, the GI50 in [7], in assay [8], in assay [9], in assay [10], in assay [11] and in assay [12] was > 100 µM (inactive) in each case. The GI50 in assay [14], in assay [15], in [16] and in assay [17] was > 100 µM (inactive) throughout.

As to `COc1ccc(/C(=N/NC(N)=O)C(c2ccc(OC)cc2)C2C(=O)Oc3ccccc32)cc1` (centres undefined), the GI50 was > 100 µM (inactive) in assay [3]; 75 µM (inactive) in assay [4]; > 100 µM (inactive) in assay [5]; > 100 µM (inactive) in [6]; > 100 µM (inactive) in assay [7]; > 100 µM (inactive) in assay [8]. For the same compound, the GI50 in [9], in [10], in assay [12], in assay [13], in assay [14] and in assay [15] was > 100 µM (inactive) throughout. In addition, the GI50 in [16] and in [17] was > 100 µM (inactive) throughout.

As to `O=C1NCCS(=O)(=O)N[C@@H](CC2=CC=CCC2)C(=O)N2CCCC12` (some centres undefined), the GI50 in assay [1], in [2], in assay [3], in [4], in assay [5] and in assay [6] was > 100 µM (inactive) each time. For the same compound, the GI50 in assay [7], in assay [8], in assay [9], in assay [10], in assay [11] and in assay [12] was > 100 µM (inactive) in each case. The GI50 in assay [13], in assay [14], in [15], in assay [16] and in assay [17] was > 100 µM (inactive) each time.

With `CC1OC(n2cc(F)c(=O)[nH]c2=O)CCC1=O` (centres undefined), the GI50 is > 100 µM (inactive) in assay [1]; 50.8 µM (inactive) in assay [3]; > 100 µM (inactive) in [4]; > 100 µM (inactive) in assay [5]; > 100 µM (inactive) in assay [7]; > 100 µM (inactive) in assay [9]. Also, the GI50 in [11], in assay [12], in assay [13], in [14], in assay [15] and in assay [16] was > 100 µM (inactive) throughout. Moreover, the GI50 in [17] was > 100 µM (inactive).

Consider `COc1ccc(N2C(=O)C3c4[nH]c5ccccc5c4C4CCC(C(C)(C)C)CC4C3C2=O)cc1OC` (centres undefined), for which the GI50 in assay [1] is 22.1 µM (inactive); in assay [2] it was 35.8 µM (inactive); in [3], 18 µM (inactive); in [4] it was 20.5 µM (inactive); in [5], 18.5 µM (inactive); in [6], 34.6 µM (inactive). Besides, the GI50 in assay [7] was 15.4 µM (inactive); in assay [9], 21.9 µM (inactive); in assay [10], 71.1 µM (inactive); in [12] it was 23 µM (inactive); in [13] it was 16.3 µM (inactive); in assay [14] it was 18.1 µM (inactive). For the same compound, the GI50 in assay [15] is 26.7 µM (inactive); in assay [16], 27.6 µM (inactive); in [17] it was 67 µM (inactive).

On to `CCn1c2ccccc2c(=O)c2c(OC)ccc(OC)c21`, for which the GI50 in assay [1] is 35.9 µM (inactive); in assay [2] it was > 66.5 µM (inactive); in assay [3], 54.3 µM (inactive); in [4], 39 µM (inactive); in assay [5], 34 µM (inactive); in [6], > 83.8 µM (inactive). The GI50 in assay [7] was 20.6 µM (inactive); in assay [8], 34 µM (inactive); in [9] it was 31.3 µM (inactive); in assay [11] it was 75.5 µM (inactive); in [12], 42.5 µM (inactive); in assay [14], 34.9 µM (inactive). For the same compound, the GI50 in assay [15] is 32.8 µM (inactive); in assay [16] it was 64.6 µM (inactive); in assay [17], 41.4 µM (inactive).

As for `N#CC1=C(c2ccccc2)NN(Cc2ccccc2)C(c2ccc(Cl)cc2)CC1=O` (centres undefined), the GI50 was 23.3 µM (inactive) in assay [1]; 16.3 µM (inactive) in assay [4]; 20.4 µM (inactive) in assay [5]; 20.1 µM (inactive) in [6]; 12.7 µM (inactive) in assay [7]; 20.9 µM (inactive) in assay [9]. Moreover, the GI50 in [10] is 39.8 µM (inactive); in assay [11], 25.8 µM (inactive); in assay [13], 18.3 µM (inactive); in assay [14], 20.6 µM (inactive); in assay [15] it was 20.2 µM (inactive); in assay [16], 17.3 µM (inactive). Moreover, the GI50 in [17] is 37.8 µM (inactive).

Turning to `CC1(C)COC2(OC1)C1=NS(=O)(=O)CC13CCC2C3(C)C` (centres undefined), the GI50 in assay [1], in assay [2], in [3], in assay [4], in assay [5] and in [6] was > 100 µM (inactive) each time. Besides, the GI50 in assay [7], in [8], in assay [9], in assay [10], in [11] and in assay [12] was > 100 µM (inactive) throughout. Further, the GI50 in assay [13], in [14], in [15], in assay [16] and in assay [17] was > 100 µM (inactive) throughout.

`CCCCCCCCCCCCNC1(C)CNCCCNCCNCCCNC1`: the GI50 in assay [1] is 1.78 µM (inactive); in assay [2] it was 3.56 µM (inactive); in [3], 1.98 µM (inactive); in assay [4], 1.85 µM (inactive); in assay [5], 1.67 µM (inactive); in assay [6] it was 1.71 µM (inactive). Further, the GI50 in [7] is 1.82 µM (inactive); in assay [8] it was 1.82 µM (inactive); in assay [9] it was 2.07 µM (inactive); in [10], 1.87 µM (inactive); in assay [11] it was 1.9 µM (inactive); in assay [12], 1.67 µM (inactive). The GI50 in [13] was 1.73 µM (inactive); in [14], 1.61 µM (inactive); in assay [15], 1.79 µM (inactive); in [16], 1.08 µM (active); in [17], 1.76 µM (inactive).
